Data taken from US20250064762A1, “A SUBSTITUTED AROMATIC DICARBONIC ACID AMIDE AS AN INHIBITOR OF THE FERROPTOSIS SUPPRESSOR PROTEIN-1 (FSP1)” (JULIUS-MAXIMILIANS-UNIVERSITÄT WÜRZBURG, priority 2021, published 2025).

What was measured:
Assay type in all cases: cell-based, human
[1] = test system: HT1080 cells; assay: Western blot of ferroptosis regulators GPX4, ACSL4 and FSP1; conditions: 100 μM CPBA; 16 h; liproxstatin-1 100 nM
Procedure: Cultured cells were lysed in 50 mM Tris, pH 7.5; 150 mM NaCl; 1% (v/v) Triton X-100; 0.5% (w/v) sodium deoxycholate; 0.1% (w/v) sodium dodecyl sulfate; 5 μg/mL aprotinin, 1 μg/mL leupeptin, 1 μg/mL pepstatin, and 1 mM 4-(2-aminoethyl)benzenesulfonyl fluoride (Pefabloc). Protein concentrations were determined using the Micro BCA Protein Assay Kit (Thermo Fisher Scientific). Proteins were separated by SDS-PAGE, transferred to nitrocellulose membranes by semidry-blotting, and incubated with the indicated antibodies.
Western blots were quantified using the public domain NIH Image program (developed at the U.S. National Institutes of Health, http://rsb.info.nih.gov/nih-image/). Statistical analysis was performed using GraphPad Prism version 7.05 or 9.1.2 (GraphPad, San Diego, CA, USA).
HT1080 cells were cultured in the presence of liproxstatin-1 (100 nM), and incubated for 16 h with the solvent control DMSO (0.1%), RSL3 (1 μM), FIN56 (10 μM), or BSO (100 μM) in the presence of either 0.1% DMSO (−) or 100 μM CPBA (+). Cells were lysed and probed with the indicated antibodies as described above. […] Quantification of relative intensity of Western Blot bands was performed as described above (see FIG. 7).

[2] = test system: HT1080 cells; assay: Lipid peroxidation, BODIPY 581/591-C11 probe, flow cytometry; conditions: 100 μM CPBA; 16 h; subeffective RSL3, FIN56 or BSO
Procedure: Approximately 10,000 HT1080 cells were seeded per well of a 48-well dish. The next day, cells were treated for 16 h with DMSO (0.1%, solvent control), CPBA (100 μM), or liproxstatin-1 (100 nM) in the absence or presence of subeffective concentrations of RSL3 (50 nM), FIN56 (50 nM), or BSO (1 μM). Cells were incubated with the BODIPY 581/591-C11 probe (1 μM) for 30 min at 37° C. in a tissue culture incubator, harvested by trypsinization, and resuspended in 500 μL phosphate-buffered saline supplemented with 0.5 mg/mL soybean trypsin inhibitor (Sigma Aldrich). Cells were analyzed using the 488-nm laser of a flow cytometer (FACSCalibur, BD Biosciences) for excitation. […] At least 5,000 cells were analyzed per sample. […]
Effects of CPBA on cellular lipid peroxidation were investigated using a BODIPY 581/591-C11 probe as described above. […] Oxidation of the polyunsaturated butadienyl portion of the dye results in a shift of the fluorescence emission peak from about 595 nm (nonoxidized form) to about 520 nm (oxidized form) (see FIG. 8).
HT1080 cells were incubated for 16 h with DMSO (0.1%, solvent control), CPBA (100 μM), or liproxstatin-1 (lip-1, 100 nM) in the absence or presence of subeffective concentrations of RSL3 (50 nM), FIN56 (50 nM), or BSO (1 μM). Fluorescence intensity was quantified by flow cytometry using a 530 nm band-pass filter as described above and quantified. […]

[3] = test system: HT1080 GPX4-knockout (KO) cells; assay: Viability of GPX4-knockout cells after α-tocopherol wash-out; conditions: 100 μM CPBA; 48-120 h after α-tocopherol wash-out
Procedure: (§1) The following HT1080 fibrosarcoma cell lines were generated using CRISPR/Cas9 technology, as previously described (Doll et al., 2019): HT1080 GPX4-knockout (KO) cells (maintained in the presence of 100 μM α-tocopherol); HT1080 GPX4 knockout cells overexpressing FSP1 (GPX4-KO/FSP1-OE); GPX4-KO cells overexpressing FSP1 and re-expressing GPX4 (GPX4-KO/FSP1-OE/GPX4-OE); HT1080 FSP1-WT or FSP1-KO cells; and HT1080 FSP1-KO cells reconstituted with either FSP1-WT or FSP1-G2A. LOX-IMVI (BRAF V600E heterozygous human melanoma cells) expressing either the Venus mock vector or FSP1-Venus (Doll et al., 2019) were grown in RPMI-1640 supplemented with 10% FCS, 2 mM L-glutamine and Pen/Strep.
In order to study the effect of CPBA-induced sensitization to ferroptosis in the absence of the ferroptosis suppressor GPX4, we generated HT1080 GPX4-knockout (KO) cells using CRISPR/Cas9 technology as described above. Lack of GPX4 expression in GPX4-KO cell lines was confirmed by Western Blot as described above (see FIG. 11). […] Cell viability was assessed at 48 h, 72 h, 96 h and 120 h using AquaBluer.

[4] = test system: GPX4-KO/FSP1-OE HT1080 cells; assay: Viability of FSP1-dependent GPX4-KO cells with serial dilutions of CPBA, no FINs; conditions: serial dilutions of CPBA, no FINs
Procedure: as §1
Next, we tested the effect of CPBA on ferroptotic cell death in GPX4-deficient HT1080 cells whose survival depends on the expression of FSP1 in order to suppress ferroptosis in the absence of GPX4. GPX4 knockout cells overexpressing FSP1 (GPX4-KO/FSP1-OE), or GPX4-KO cells overexpressing FSP1 and re-expressing GPX4 (GPX4-KO/FSP1-OE/GPX4-OE) were incubated with serial dilutions of CPBA. Note that no ferroptosis inducers (FINs) were added. Protein expression was confirmed by Western Blot as described above (see FIG. 11).

SMILES: O=C(Nc1ccccc1C(=O)O)c1ccc(Oc2ccc(C(=O)Nc3ccccc3C(=O)O)cc2)cc1 [CPBA, 2-[[4-[4-[(2-carboxyphenyl)carbamoyl]phenoxy]benzoyl]amino]-benzoic acid]
- expression of GPX4, ACSL4 and FSP1 [1]: not affected by the presence of CPBA
- amount of lipid peroxidation [2]: the amount of lipid peroxidation in the cells is increased
- ferroptosis in the absence of GPX4 [3]: accelerates ferroptosis in the absence of GPX4
- cell death of GPX4-KO, FSP1-dependent cells [4]: die in a CPBA concentration-dependent manner
